Laboratory results taken from paper PMC12802956, “Dalbavancin dosing in a severely underweight person with prosthetic valve endocarditis: the critical role of proactive therapeutic drug monitoring” (Journal of Antimicrobial Chemotherapy, 2025).
Where two headings read alike, the source gives them in different places.

Legend:
Corynebacterium striatum = experiment: Clinical course of prosthetic aortic valve infective endocarditis under dalbavancin therapy; format: in vivo, human; settings: single patient
Description: (§1) We report the case of a patient who required initiation of dalbavancin therapy in November 2024 for infective endocarditis of a biological aortic valve (replaced April 2024) caused by Corynebacterium striatum. […] Due to a high surgical risk, the patient was deemed ineligible for repeat cardiac surgery.
The eighth dalbavancin dose was scheduled 50 days after the previous administration.

[1] = Therapeutic drug monitoring of dalbavancin plasma concentrations (Cmin, Cmax) in a severely underweight patient; format: in vivo, human
Protocol: Following multidisciplinary consultation, a dosing regimen of dalbavancin 1000 mg administered on day 1 and day 8 was initiated. Subsequent dosing intervals were guided based on TDM results, assessing both minimum (Cmin, within 1 h before the injection) and maximum (Cmax, 30–60 min after the end of infusion) dalbavancin plasma concentrations, as previously described.[3],[4] Cmin and Cmax values were incorporated into log-linear regression models by plotting the logarithm of dalbavancin plasma concentrations against time, to estimate individualized timing of subsequent doses, with the aim of maintaining Cmin levels above 8 mg/L (based on a breakpoint MIC of […]).[3–7],[9]
The quantification of dalbavancin plasma concentrations was performed using a previously validated liquid chromatography–tandem mass spectrometry method.[10] The volume of distribution was estimated as the ratio between the dalbavancin dose and the mean Cmax concentration. Written informed consent for all medical procedures and interventions performed in accordance with clinical practice was obtained from the patient.

[2] = cited from earlier work
Description: As a result, severely underweight patients may theoretically be at risk of drug overexposure when treated with the conventional 1 ...

[3] = Tolerability of earlier antibiotic therapy in the patient; format: in vivo, human; settings: single patient, treatment before the start of dalbavancin
Description: as §1

CN[C@H]1C(=O)N[C@@H]2Cc3ccc(cc3)Oc3cc4cc(c3O[C@@H]3O[C@H](C(=O)O)[C@@H](O)[C@H](O)[C@H]3NC(=O)CCCCCCCCC(C)C)Oc3ccc(cc3Cl)[C@@H](O)[C@@H]3NC(=O)[C@H](NC(=O)[C@@H]4NC(=O)[C@@H](NC2=O)c2cc(cc(O)c2Cl)Oc2cc1ccc2O)c1ccc(O)c(c1)-c1c(O[C@H]2O[C@H](CO)[C@@H](O)[C@H](O)[C@@H]2O)cc(O)cc1[C@@H](C(=O)NCCCN(C)C)NC3=O [dalbavancin, Dalbavancin]
PET scan finding (Corynebacterium striatum; PET scan 6 months after initiation of dalbavancin therapy): stability of the infectious process | clinical status at last follow-up visit (Corynebacterium striatum; last follow-up visit after seven dalbavancin administrations, negative inflammatory markers): no fever or signs of systemic infection | Cmin (minimum dalbavancin plasma concentration) ([1]; patient, 28-38 kg, 1000 mg on day 1 and day 8, then TDM-guided intervals, seven administrations over 217 days, sampled within 1 h before the injection, plasma, LC-MS/MS, at each TDM assessment): exceeded 8 mg/L | volume of distribution, range ([1]; severely underweight patient (28-38 kg), dose/Cmax, range over the observation period): 2.2 to 3.1 L | mean volume of distribution ([1]; severely underweight patient (28-38 kg), ratio between dalbavancin dose and mean Cmax (30-60 min after end of infusion), plasma LC-MS/MS, mean ± spread over administrations): 2.7 ± 0.4 L | volume of distribution (approximate, as discussed) ([1]; severely underweight patient, markedly reduced compared with reported values): 2 to 3 L | volume of distribution ([2]; normal-weight individuals): 3 to 4 L | volume of distribution ([2]; obese individuals): 6 to 7 L | volume of distribution ([2]; overweight individuals): 4 to 5 L

vancomycin
tolerability in the patient [3]: discontinued due to a cutaneous adverse reaction
